Reference: patent publication US6689789B2, “Compounds useful for inhibition of farnesyl protein transferase” (Schering Corporation, priority 1997, dated 2004)

Biological target: farnesyl protein transferase (Homo sapiens, UniProt P49356)
Test: FPT IC50, inhibition of farnesyl protein transferase, in vitro enzyme assay
Format: biochemical
Details: procedure of WO 95/10516
Experimental: FPT IC50 (inhibition of farnesyl protein transferase, in vitro enzyme assay) and COS Cell IC50 (Cell-Based Assay) were determined following the assay procedures described in WO 95/10516, published Apr. 20, 1995. GGPT IC50 (inhibition of geranylgeranyl protein transferase, in vitro enzyme assay), Cell Mat Assay, and anti-tumor activity (in vivo anti-tumor studies) could be determined by the assay procedures described in WO 95/10516. The disclosure of WO 95/10516 is incorporated herein by reference thereto.

IC50 [nM]	Structure (SMILES)
42	CC(C)(C)OC(=O)N1CCC(CC(=O)N2CCC(C3(O)c4ncc(Br)cc4CCc4cc(Cl)cc(Br)c43)CC2)CC1 (centres unmarked) [Example #2 Step A, 4-(3,10-dibromo-8-chloro-6,11-dihydro-11-hydroxy-5H-benzo[5,6]cyclohepta[1,2-b]pyridin-11-yl)-1-(N-BOC-4-piperdinylacetyl)piperidine]
< 2	O=C(Cc1cc[n+]([O-])cc1)N1CCC(C2(O)c3ncc(Br)cc3CCc3cc(Cl)cc(Br)c32)CC1 (centres unmarked) [Example #1 Step C, 4-(3,10-dibromo-8-chloro-6,11-dihydro-11-hydroxy-5H-benzo[5,6]cyclohepta[1,2-b]pyridin-11-yl)-1-(4-pyridinylacetyl)piperidine N1-oxide]
10.8	NC(=O)N1CCC(CC(=O)N2CCC(C3(O)c4ncc(Br)cc4CCc4cc(Cl)cc(Br)c43)CC2)CC1 (centres unmarked) [Example #2 Step C, 4-[2-[4-(3,10-dibromo-8-chloro-6,11-dihydro-11-hydroxy-5H-benzo[5,6]cyclohepta[1,2-b]pyridin-11-yl)-1-piperdinyl]-2-oxoethyl]-1-piperidinecarboxamide]
12.5	O=C(CC1CCNCC1)N1CCC(C2(O)c3ncc(Br)cc3CCc3cc(Cl)cc(Br)c32)CC1 (centres unmarked) [Example #2 Step B, 4-[2-[4-(3,10-dibromo-8-chloro-6,11-dihydro-11-hydroxy-5H-benzo[5,6]-cyclohepta[1,2-b]pyridin-11-yl)-1-piperdinyl]-2-oxoethyl]-1-piperidine]
8.7	NC(=O)CN1CCC(CC(=O)N2CCC(C3(O)c4ncc(Br)cc4CCc4cc(Cl)cc(Br)c43)CC2)CC1 (centres unmarked) [compound 3, 4-[2-[4-(3,10-dibromo-8-chloro-6,11-dihydro-11-hydroxy-5H-benzo[5,6]cyclohepta-[1,2-B]pyridin-11-yl)-1-piperidinyl]-2-oxoethyl]-1-piperidineacetamide]
